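These data come from cells grown in 96-well plates and exposed to compound for 48 hours at five concentrations. Abbreviation: GI50, concentration required for 50% inhibition of growth. TGI denotes the concentration required for complete inhibition of growth.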
Tests used:
Assay in all cases: NCI anticancer screen, dose series, 48 h
[1] = test system: HT29 colon
[2] = test system: RXF 393 renal
[3] = test system: SF-268 CNS
[4] = test system: SF-539 CNS
[5] = test system: SK-MEL-2 melanoma
[6] = test system: SK-MEL-5 melanoma
[7] = test system: SN12C renal
[8] = test system: SNB-19 CNS
[9] = test system: SNB-75 CNS
[10] = test system: TK-10 renal

CN1CCN(c2ccc(-c3ccc4ncc(C#N)c(Nc5ccc(F)c(Cl)c5)c4c3)cc2)CC1
GI50 [1]: 2.33 µM | TGI [1]: 8.32 µM | GI50 [2]: 1.62 µM | TGI [2]: 5.54 µM | GI50 [3]: 2.87 µM | TGI [3]: 15.9 µM | GI50 [4]: 1.86 µM | TGI [4]: 4.07 µM | GI50 [5]: 2.3 µM | TGI [5]: 6.72 µM | GI50 [6]: 2.19 µM | TGI [6]: 5.43 µM | GI50 [7]: 3.04 µM | TGI [7]: 19.6 µM | GI50 [8]: 3.36 µM | TGI [8]: 19.2 µM | GI50 [9]: 2.33 µM | TGI [9]: 15.9 µM | GI50 [10]: 0.484 µM | TGI [10]: 18.8 µM

COc1cc(-c2n/c(=C\c3c(O)[nH]c4ccc(Cl)cc34)cc3c2=Nc2ccccc2-3)cc(OC)c1OC
GI50 [1]: 1.04 µM | TGI [1]: 2.96 µM | GI50 [2]: 1.63 µM | TGI [2]: 3.33 µM | GI50 [3]: 1.6 µM | TGI [3]: 3.95 µM | GI50 [4]: 2.32 µM | TGI [4]: 4.91 µM | GI50 [5]: 2.21 µM | TGI [5]: 4.9 µM | GI50 [6]: 1.83 µM | TGI [6]: 5.63 µM | GI50 [7]: 0.754 µM | TGI [7]: 2.36 µM | GI50 [8]: 1.18 µM | TGI [8]: 3.84 µM | GI50 [9]: 1.72 µM | TGI [9]: 4.84 µM | GI50 [10]: 1.5 µM | TGI [10]: 3.2 µM

Cc1nc(Cl)c(Cl)c(Cl)n1
TGI [1]: 0.442 µM | TGI [2]: 1.85 µM | TGI [3]: 4.27 µM | TGI [4]: 2.82 µM | TGI [5]: 2.73 µM | TGI [6]: 1.97 µM | TGI [7]: 1.26 µM | TGI [8]: 2.74 µM | TGI [9]: 2.7 µM | TGI [10]: 3.51 µM

O=C(N/C(=C\c1ccccc1[N+](=O)[O-])c1nc2ccccc2[nH]1)c1ccccc1
TGI [1]: > 100 µM | TGI [2]: > 100 µM | TGI [5]: > 100 µM | TGI [6]: > 100 µM | TGI [7]: > 100 µM | TGI [8]: > 100 µM | TGI [10]: > 100 µM

CC(C)(N)CO[C@H]1C[C@H]2CC[C@@]1(C)C2(C)C
TGI [1]: 34 µM | TGI [2]: 28.2 µM | TGI [3]: > 100 µM | TGI [4]: 41 µM | TGI [5]: 35.3 µM | TGI [6]: 32.8 µM | TGI [7]: > 100 µM | TGI [8]: 68.5 µM | TGI [9]: 39.3 µM | TGI [10]: 40 µM

O=c1[nH][nH]c(=O)[nH]1
TGI [1]: > 100 µM | TGI [2]: > 100 µM | TGI [3]: > 100 µM | TGI [4]: > 100 µM | TGI [5]: > 100 µM | TGI [6]: > 100 µM | TGI [8]: > 100 µM | TGI [9]: > 100 µM | TGI [10]: > 100 µM

CCn1nc(C)c2c1C(=O)NC(C)C(=O)N2 (stereo not given)
TGI [1]: > 100 µM | TGI [2]: > 100 µM | TGI [3]: > 100 µM | TGI [4]: > 100 µM | TGI [6]: > 100 µM | TGI [7]: > 100 µM | TGI [8]: > 100 µM | TGI [9]: > 100 µM | TGI [10]: > 100 µM

Source: PubChem BioAssay (NCI)
